pIC50: −log10 of the molar value.
Tests used:
CYP1A2 = biological target: T1, CYP1A2 (Homo sapiens, UniProt P05177); test: Cytochrome P450 inhibition, CYP1A2; assay type: in vitro ADME; conditions: probe Phenacetin (40 μM); 10 μM compound, human liver microsomes, substrate Phenacetin; read-out: Inhibition percentage CYP1A2 (Phenacetin)
T1 construct: from tissue; host or cells: human liver microsomes
T1 sequence (P05177 1-516): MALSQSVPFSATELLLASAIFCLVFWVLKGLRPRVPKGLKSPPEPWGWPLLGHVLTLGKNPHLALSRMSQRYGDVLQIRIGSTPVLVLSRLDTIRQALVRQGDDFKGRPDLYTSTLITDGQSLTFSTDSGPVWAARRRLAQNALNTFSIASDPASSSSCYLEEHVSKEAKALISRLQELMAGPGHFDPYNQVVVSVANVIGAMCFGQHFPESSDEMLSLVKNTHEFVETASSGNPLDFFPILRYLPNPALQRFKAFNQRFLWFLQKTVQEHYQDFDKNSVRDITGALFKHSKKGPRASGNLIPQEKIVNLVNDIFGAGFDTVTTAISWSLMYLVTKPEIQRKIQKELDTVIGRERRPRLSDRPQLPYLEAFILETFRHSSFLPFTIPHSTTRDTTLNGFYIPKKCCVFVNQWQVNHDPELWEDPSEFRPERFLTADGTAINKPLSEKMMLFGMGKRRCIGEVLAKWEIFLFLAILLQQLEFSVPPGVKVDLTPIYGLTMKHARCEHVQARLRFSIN
Procedure: Example 205 Cytochrome P450 Measurements The cytochrome P450 was measured as the following procedure: 1) A master solution containing phosphate buffer, ultra-pure H2O, MgCl2 solution and human liver microsomes was made according to Table 17, and then 1 μL of 2 mM of compound solution or 1 μL of DMSO (as without inhibitor control) was added to the above master solution. The final concentration of test compounds or control compounds was 10 μM. [table] 2) For CYP1A2 inhibition, 1 μL of specific drug substrate (Phenacetin: 8 mM) was added at the final concentration of 40 μM to the above solution. 8) The mixture was pre-warmed at 37° C. for 5 min. The reaction was started by the addition of 20 μL of 10 mM NADPH solution at the final concentration of 1 mM and carried out at 37° C. 9) The reaction was stopped by addition of 300 μL of cold quench solution (methanol containing internal standards (1S, 500 nM Labetalol, 100 nM Alprazolam and 2 μM Ketoprofen) at the designated time points (Phenacetin: 20 min; Paclitaxel: 10 min; Tolbutamide: 20 min; (s)-Mephenytoin: 20 min; Midazolam: 5 min; Testosterone: 10 min). Samples were vortexed for 5 minutes and centrifuged at 3220 g for 40 minutes at 4° C. And then 100 μL of the supernatant was transferred to a new 96-well plate with 100 μL or 200 μL water (depends on the LC-MS signal response and peak shape) for LC-MS/MS analysis. All experiments were performed in duplicates.

NTRK1-G595R = NTRK1-G595R (Homo sapiens, UniProt P04629, G595R); test: NTRK1-G595R cell proliferation assay (Table 13); assay type: cell-based
NTRK1-G595R, sequence (P04629 33-796 G595R): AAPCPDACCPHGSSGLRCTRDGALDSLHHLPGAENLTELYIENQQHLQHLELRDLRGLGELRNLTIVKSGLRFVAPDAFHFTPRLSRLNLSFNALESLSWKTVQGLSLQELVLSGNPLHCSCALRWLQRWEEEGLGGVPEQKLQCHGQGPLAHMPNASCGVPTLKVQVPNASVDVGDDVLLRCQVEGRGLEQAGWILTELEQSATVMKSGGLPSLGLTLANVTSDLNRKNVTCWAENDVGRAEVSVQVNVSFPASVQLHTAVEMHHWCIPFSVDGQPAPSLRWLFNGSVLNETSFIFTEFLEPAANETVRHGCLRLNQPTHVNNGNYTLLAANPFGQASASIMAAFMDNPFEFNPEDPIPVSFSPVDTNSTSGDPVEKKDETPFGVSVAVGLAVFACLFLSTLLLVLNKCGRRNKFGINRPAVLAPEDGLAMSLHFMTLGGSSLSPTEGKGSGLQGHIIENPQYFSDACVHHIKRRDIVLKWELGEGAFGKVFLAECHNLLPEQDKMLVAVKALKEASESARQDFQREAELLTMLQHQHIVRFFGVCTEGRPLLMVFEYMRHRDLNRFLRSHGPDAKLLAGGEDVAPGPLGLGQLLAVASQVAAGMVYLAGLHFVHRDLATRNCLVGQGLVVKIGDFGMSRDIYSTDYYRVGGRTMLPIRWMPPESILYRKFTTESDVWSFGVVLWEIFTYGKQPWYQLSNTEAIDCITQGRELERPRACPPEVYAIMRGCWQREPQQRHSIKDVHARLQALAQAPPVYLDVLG

Row | Structure (SMILES) | inhibition at 20 min, 10 µM (CYP1A2) [%] | pIC50 (NTRK1-G595R)
1 | Cc1nnc(-c2cnn3ccc(N4CCCC4c4cc(F)ccc4F)nc23)[nH]1 (centres unmarked) [Comparative compound A, 5-[2-(2,5-Difluorophenyl)pyrrolidin-1-yl]-3-(5-methyl-1H-1,2,4-triazol-3-yl)pyrazolo[1,5-a]pyrimidine, reference compound] | 29 | 
2 | C[C@H](O)c1nnc(-c2cnn3ccc(N4CCC[C@@H]4c4cc(F)ccc4F)nc23)[nH]1 [Compound 4, (S)-1-(5-(5-((R)-2-(2,5-difluorophenyl)pyrrolidin-1-yl)pyrazolo[1,5-a]pyrimidin-3-yl)-4H-1,2,4-triazol-3-yl)ethan-1-ol] | 1.53 | 
3 | CC(C)(O)c1nnc(-c2cnn3ccc(N4CCC[C@@H]4c4cc(F)ccc4F)nc23)[nH]1 [Compound 7, (R)-2-(5-(5-(2-(2,5-difluorophenyl)pyrrolidin-1-yl)pyrazolo[1,5-a]pyrimidin-3-yl)-4H-1,2,4-triazol-3-yl)propan-2-ol] | 8.54 | 6.97
4 | OC(c1nnc(-c2cnn3ccc(N4CCC[C@@H]4c4cc(F)ccc4F)nc23)[nH]1)C(F)(F)F (stereo partly drawn) [Compound 47, 1-(5-(5-((R)-2-(2,5-difluorophenyl)pyrrolidin-1-yl)pyrazolo[1,5-a]pyrimidin-3-yl)-4H-1,2,4-triazol-3-yl)-2,2,2-trifluoroethan-1-ol] | 4.38 | 

— patent US20210395256A1, “TYROSINE KINASE INHIBITORS, COMPOSITIONS AND METHODS THERE OF” (Betta Pharmaceuticals Co., Ltd., priority 2018, published 2021)
